Among the data in patent US6399593B1, “Cyclic regimens using cyclic urea and cyclic amide derivatives” (Wyeth, priority 1999, dated 2002) are EC50 values, retold here.

This test concerns T47D cells. As to the kind of experiment: T47D cell proliferation assay (BrdU incorporation). Type of test: cell-based. The conditions noted are these: second print headed Table 3, individual studies (Exp 1-3). How it is done: The objective of this assay is the determination of progestational and antiprogestational potency by using a cell proliferation assay in T47D cells. A compound's effect on DNA synthesis in T47D cells is measured.
DMEM:F12 (1:1) (GIBCO, BRL) supplemented with 10% (v/v) fetal bovine serum (not heat-inactivated), 100 U/ml penicillin, […], and 2 mM GlutaMax (GIBCO, BRL).
Minimum Essential Medium (MEM) (#51200-038GIBCO, BRL) phenol red-free supplemented with 0.5% charcoal stripped fetal bovine serum, 100 U/ml penicillin, 200 mg/ml streptomycin, and 2 mM GlutaMax (GIBCO, BRL).
Stock T47D cells are maintained in growth medium. For BrdU incorporation assay, cells are plated in 96-well plates (Falcon, Becton Dickinson Labware) at 10,000 cells/well in growth medium. […]
At the end of BrdU labeling, the medium is removed and BrdU incorporation is measured using a cell proliferation ELISA kit (#RPN 250, Amersham Life Science) according to manufacturer's instructions. […] Then 25 μl of 1 M sulfuric acid is added to each well to stop color reaction and optical density is read in a plate reader at 450 nm within 5 min.
Square root-transformed data are used for analysis of variance and nonlinear dose response curve fitting for both agonist and antagonist modes. […] EC50 or IC50 values are calculated from the retransformed values. […]
Background: Uptake of a labelled nucleoside into DNA is a usual measure of proliferation.

As usually defined, the EC50 is the concentration at which the effect is half-maximal. A higher EC50 goes with lower potency in that assay. Regarding `CC(=O)O[C@]1(C(C)=O)CC[C@H]2[C@@H]3C[C@H](C)C4=CC(=O)CC[C@]4(C)[C@H]3CC[C@@]21C` [MPA, medroxyprogesterone acetate], the EC50 was 0.017 nM. In other words, the picomolar range.
